Assays:
CD1 mice = experiment: PMA induced ear oedema in CD1 mice; type: in vivo, mouse; settings: topical, single dose of 250 or 100 μg/15 μL/ear; statistically significant vs positive control
Description: Male CD1 mice (Iffa Credo, France) weighing ˜35-40 g were randomly grouped (n=8 in vehicle treated test group, dexamethasone treated control group as well as in groups treated with compounds to be assayed). Test compounds, dexamethasone as well as vehicle (Trans-phase Delivery System, containing benzyl alcohol 10%, acetone 40% and isopropanol 50%) (all from Kemika, Croatia), were administered topically to the internal surface of the left ear thirty minutes prior to administration of phorbol 12-myristate 13-acetate (PMA) (Alexis biochemicals, USA). Test compounds were administered at a single dose of 250 or 100 μg/15 μL/ear and dexamethasone at a single dose of 50 μg/15 μL/ear. Thirty minutes later, 0.01% PMA solution in acetone was applied topically to the same area of each animal in a volume of 12 μL/ear. During the treatment and challenge, animals were anaesthetized by using inhalation anaesthesia. Six hours after the challenge, animals were euthanized by asphyxiation in 100% CO2 atmosphere. For assessing the auricular oedema, 8 mm discs were cut out of left and right auricular pinna and weighed. The degree of oedema was calculated by subtracting the weight of 8 mm disc of the untreated ear from that of the treated contralateral ear.

IFNγ = experiment: Inhibition of IFNγ production by ConA stimulated mouse splenocytes; type: cell-based; settings: 25 μM
Description: (§1) Spleen cell suspension was obtained from BALB/c mice and lymphocytes separated by gradient density centrifugation on Histopaque 1.083 on 400 g for 30 minutes. They were washed once in medium, counted and their number adjusted as 3×10^5/200 μL/well in 96 flat bottomed culture plate in RPMI supplemented with 10% fetal bovine serum. Cells were stimulated on cytokine production by adding concanavalinA (ConA) at 5 μg/mL final concentration. Unstimulated cells were cultured in medium alone. Stock solution was prepared out of testing compounds as 10 mM in DMSO. Final concentrations made in cell culture medium were tested when they had been added together with ConA. After 72 hours incubation period cell culture supernatants were collected. In each sample IL-4, IL-5, IL-10 and IFNγ were detected and quantified using enzyme linked immunosorbent assay (ELISA) specific for pointed cytokines (R&D Systems).
(§2) To calculate results, standard curve was made out of measured OD values for recombinant protein in known concentrations. Cytokine content in unknown samples was calculated out of OD values extrapolated from the standard curve.
(§3) Percentage of inhibition is calculated using formula:
(§4) % Inhibition=(1−cytokine concentration of sample/cytokine concentration of positive control)×100.

IL-10 = experiment: Inhibition of IL-10 production by ConA stimulated mouse splenocytes; type: cell-based; settings: 25 μM
Description: as §1, §2, §3, §4

IL-5 = experiment: Inhibition of IL-5 production by ConA stimulated mouse splenocytes; type: cell-based; settings: 25 μM
Description: as §1, §2, §3, §4

IL-4 = experiment: Inhibition of IL-4 production by ConA stimulated mouse splenocytes; type: cell-based; settings: 25 μM
Description: as §1, §2, §3, §4

IL-1β = experiment: Inhibition of IL-1β production by LPS stimulated human peripheral blood mononuclear cells (hPBMCs); type: cell-based; settings: 25 μM
Description: Blood was taken from healthy volunteer donor, diluted with the same volume of saline and was separated by gradient density centrifugation on FicollPaque™ Plus on 400 g for 30 minutes. PBMCs were collected, washed in RPMI, counted and number per mL was adjusted.
Collected PBMCs were cultured into 96 well tissue culture plate, flat bottom as 35.000 cells/well/200 uL in RPMI supplemented with 10% fetal bovine serum, prior inactivated on 56° C. for 30 minutes. Cells were stimulated on IL-1 production by adding LPS (serotype 0111:B4, Sigma, cat# L-2630), at final concentration 1 ng/mL. Unstimulated cells were cultured in medium alone. Stock solution was prepared out of testing compounds as 10 mM in DMSO. Final concentrations made in cell culture medium were tested when they had been added together with LPS. […] Negative and positive control samples were prepared in sextaplicates and samples with tested compound concentrations in triplicates. After overnight incubation in humidified atmosphere containing 5% CO2, supernatants were collected.
Harvested cell culture supernatants were quantified for IL-1β content by enzyme linked immunosorbent assay (ELISA).
as §3, §4

Balb/cJ mice = experiment: LPS induced pulmonary neutrophilia in mice; type: in vivo, mouse; settings: LPS challenged mice; i.n., i.p. or per os
Description: Male Balb/cJ mice (Iffa Credo, France) weighing ˜25 g are randomly grouped into a negative control group, positive control group and groups treated with compounds to be assayed). Test compounds, as well as vehicle (DMSO+0.5% methyl-cellulose) (all from Sigma), are administered i.n., ip. or per os two hours prior to administration of lipopolysaccharide (LPS) (E. coli, serotype 0111:B4, Sigma) or two hours prior and two hours after administration of LPS. Test compounds are administered at a single dose (two hours prior the challenge) or divided into two doses (two hours prior and two hours after the challenge). LPS solution in phosphate buffered saline (PBS) (Sigma) is administered intranasally in volume of 60 μL at concentration of 33,33 μg/mL, to all experimental groups except the negative control group, which received the same volume (60 μL) of vehicle PBS. During the challenge, animals were anaesthetized by using intraperitoneal anaesthesia. Animals are euthanized by i.p. anesthesia overdose approximately 24 hours after application of LPS to obtain bronchoalveolar lavage fluid (BALF), which is used to determine total protein concentration as well as concentrations of cytokines, such as IL-1β and TNF-α, absolute number of cells, and percentage of neutrophils in BALF. Bronchoalveolar lavage (BAL) is performed by infusing 1 mL of PBS divided into 3 separate volumes (0.4, 0.3 and 0.3 ml) through trachea into the lungs. The fluid is immediately withdrawn and the cell suspension stored into previously prepared 1.5 mL Eppendorf tube. Bronchoalveolar lavage fluid (BALF) is then centrifuged at […] for 5 min (4° C.). Cells are resuspended in 700 μL of PBS. To prepare cytospins, 320 μL of suspension is centrifuged at 250 rpm for 10 min (Cytospin-3, Shandon Instruments). Cells are stained with Dif-Quik (Dade Behring) to determine percentage of neutrophils by counting of at least 200 cells. The remaining resuspended cells are used for total cell count in BALF analysis (Sysmex SF 3000). […] Accumulation of granulocytes and mononuclear cells in peribronclhial (PB) and perivascular (PV) lung tissue areas and alveolar spaces is monitored.
(§5) Results can be expressed as (I) decrease of absolute cell number per mL in BALF, (II) decrease of number of neutrophils per mL in BALF, (III) reduction of relative number (percentage) of neutrophils in BALF, (IV) reduction of cytokine concentrations in BALF, as well as (V) suppression of accumulation of granulocytes and mononuclear cells in peribronchial (PB) and perivascular (PV) lung tissue areas and in alveolar spaces by pathohistological scoring of treated animals compared to positive control (LPS stimulated, but untreated animals).

Balb/C mice = experiment: Ovalbumin induced pulmonary eosinophilia in mice; type: in vivo, mouse; settings: OVA sensitized and challenged mice; i.n., i.p. or per os
Description: Male Balb/C mice with a body weight of 20-25 g are randomly divided into groups, and sensitized by an i.p. injection of ovalbumin (OVA, Sigma) on day zero and day fourteen. On the twentieth day, the mice are subjected to a challenge test by i.n. (intranasal) application of OVA (positive control or test groups) or PBS (negative control). The compounds are administered daily i.n., i.p. or per os in different doses starting 2 days before the challenge and up to the completion of the test. Compounds are administered as suspension either in PBS, methyl cellulose or carboxymethyl cellulose with addition od DMSO (up to 5% of the total volume). 48 hours after i.n. application of OVA, the animals are then anaesthetized to obtain bronchoalveolar lavage fluid (BALF), which is used to determine total protein concentration as well as concentrations of cytokines such as IL-1β and TNF-α, absolute number of cells, and percentage of eosinophils in BALF. Bronchoalveolar lavage (BAL) is performed by infusing 1 mL of PBS divided into 3 separate volumes (0.4, 0.3 and 0.3 ml) through trachea into the lungs. The fluid is immediately withdrawn and the cell suspension stored into previously prepared 1.5 mL Eppendorf tube. Bronchoalveolar lavage fluid (BALF) is then centrifuged at […] for 5 min (4° C.). Cells are resuspended in 700 μL of PBS. To prepare cytospins, 320 μL of suspension is centrifuged at 250 rpm for 10 min (Cytospin-3, Shandon Instruments). Cells are stained with Dif-Quik (Dade Behring) to determine percentage of eosinophils by counting of at least 100 cells. The remaining resuspended cells are used for total cell count in BALF analysis (Sysmex SF 3000). Finally, lungs are sampled and stored into 10% formalin for pathohistological evaluation of eosinophil and mononuclear infiltrate. Accumulation of eosinophils and mononuclear cells in peribronchial (PB) and perivascular (PV) lung tissue areas and in alveolar spaces is monitored.
as §5, with “eosinophils” for “neutrophils”, “eosinophils” for “granulocytes”, “(OVA” for “(LPS”
Fluticasone and beclomethasone are used as standard anti-inflammatory substances, and compared for ability to inhibit eosinophilia to the negative and positive controls.

RBL-2H3 cell line = experiment: IgE-induced RBL-2H3 mast cell degranulation (Fcε receptor type I); type: cell-based, rat; settings: concentrations from 200-50 μM; RBL-2H3 cells; stimulus not specified
Description: RBL-2H3 cell line of rat basophilic leukaemia (ATCC) was used for the investigation of inhibition of degranulation induced by the activation of Fcε receptor type I or calcium ionophors. RBL-2H3 cell line was cultivated in DMEM medium (Invitrogen Cat. No. 31966-021) with 10% of phoetal calf serum (Invitrogen Corporation) at 37° C., 5% CO2, 90% relative humidity. Cells were seeded in the same medium into 24-well plates, 50000 per well, and left to reach 80-90% of confluence.
Dilutions of compounds were prepared in DMEM medium without phenol red (Invitrogen Corporation) in concentrations from 200 μM to 1 μM. The medium was removed from the cells and the diluted of compounds were added to the wells with the exception of the positive and the negative control where pure DMEM medium was added. Subsequently,
1. for the IgE-induced degranulation by Fcs receptor type I, a solution of SPE-1 (dinitrophenyl specific IgE) antibodies (Sigma) and dinitrophenylalbumin (Sigma), both in a final concentration of 0.5 μg/mL,
In the case of the negative control wells, pure DMEM medium was added. The cells were incubated for one hour at 37° C., 5% CO2, and 90% relative humidity. Each dilution as well as the positive and the negative controls were performed in triplicate. The supernatant (50 μL) was transferred in duplicate to a 96-well plate. […] The absorbance was measured at […]. […]

Compound | suppression of ear oedema (CD1 mice) | inhibition of IFNγ production (IFNγ) | inhibition of IL-10 production (IL-10) | inhibition of IL-5 production (IL-5) | inhibition of IL-4 production (IL-4) | inhibition of IL-1β production (IL-1β) | reduction of percentage of neutrophils and/or their total number in BALF and/or by histological scoring (Balb/cJ mice) | reduction of percentage of eosinophils and/or their total number in BALF and/or by histological scoring (Balb/C mice) | inhibition of degranulation (standard) (RBL-2H3 cell line)
CCc1ccc2oc(=O)c(C(c3ccc(O)cc3)c3c(O)c4cc(CC)ccc4oc3=O)c(O)c2c1 [Example 244] | considered active | significantly inhibited | significantly inhibited | significantly inhibited | significantly inhibited | significantly inhibited |  |  | 
Cc1cc2oc(=O)c(C(c3c(O)c4cc(C)c(C)cc4oc3=O)C(C)O)c(O)c2cc1C (stereo not shown) [Example 363] | considered active |  |  |  |  |  | statistically significant reduction | statistically significant reduction | 
CN1CCC(=C2c3ccccc3CC(=O)c3sccc32)CC1 [Ketotifen, ketotifen] |  |  |  |  |  |  |  |  | significantly inhibits degranulation
